Where two headings read alike, the source gives them in different places.
How the values were obtained:
[1] = system: carbapenem-resistant P. aeruginosa clinical isolate CFS-1292; experiment: MIC by modified CLSI broth microdilution against P. aeruginosa CFS-1292 (CAA, CAA + human serum); type: cell-based, Pseudomonas aeruginosa; conditions: for MIC (μg/mL) against CFS-1292 in 100% CAA (1st run/2nd run): 1st run or single value
Pseudomonas aeruginosa = experiment: microbe, parasite or virus in culture; type: cell-based; conditions: P. aeruginosa isolates (n per peptide in table)
Enterobacter cloacae = experiment: microbe, parasite or virus in culture; type: cell-based; conditions: for MIC50 / MIC100 / MIC Range: E. cloacae isolates (n per peptide in table); for MIC: Enterobacter cloacae ATCC 13047, CAA supplemented with human serum
Summary of the method: (§1)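 Peptide MICs were determined by growth inhibition in CAA medium supplemented with human serum.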

Escherichia coli = experiment: microbe, parasite or virus in culture; type: cell-based; conditions: for MIC50 / MIC100 / MIC Range: E. coli isolates (n per peptide in table); for MIC: Escherichia coli ATCC 25922, CAA supplemented with human serum
Summary of the method: as §1

Klebsiella pneumoniae = type: cell-based; conditions: for MIC50 / MIC100 / MIC Range: K. pneumoniae isolates (n per peptide in table); for MIC: Klebsiella pneumoniae HM-44, CAA supplemented with human serum
Description: (§2) Determination of Minimal Inhibitory Concentrations (MIC).
(§3) Additional MIC testing was performed for several peptides against the ESKAPE pathogens Escherichia coli, Enterobacter cloacae, Klebsiella pneumoniae, and Acinetobacter baumannii, in CAA supplemented with human serum (Table D).

Acinetobacter baumannii = experiment: microbe, parasite or virus in culture; type: cell-based; conditions: for MIC50 / MIC100 / MIC Range: A. baumannii isolates (n per peptide in table); for MIC: Acinetobacter baumannii ATCC BAA 747, CAA supplemented with human serum
S. maltophilia = experiment: MIC against S. maltophilia isolates; type: cell-based, Stenotrophomonas maltophilia
Summary of the method: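 MIC in μg/mL for Chp peptides across several S. maltophilia isolates, n denoting the number of isolates tested.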

[2] = system: Pseudomonas aeruginosa, Escherichia coli, Enterobacter cloacae, Klebsiella pneumoniae, and Acinetobacter baumannii; experiment: MIC against a range of Gram-negative organisms (statements covering several species); type: cell-based; conditions: Tables 40-44 isolates
Description: as §2, §3

[3] = system: carbapenem-resistant bacterial strains; experiment: organism not typed; type: cell-based
Text: as §2

[4] = Stability assessment in 100% CAA; type: in vitro ADME; set-up: unit not given beside the values
Description: Stability was assessed after incubation in 100% human serum at 37° C. after 10 minutes, 1 hour, and 2 hours.
Stability assessment was further conducted in 100% CAA and rabbit serum using the same methodology discussed above.

M. smegmatis = experiment: 45 hr MIC against M. smegmatis (NTM), Mueller Hinton broth; type: cell-based, Mycobacterium smegmatis
M. fortuitum = experiment: 45 hr MIC against M. fortuitum (NTM); type: cell-based, Mycobacterium fortuitum; conditions: M. fortuitum subsp. Fortuitum da Costa Cruz. ATCC 6841
M. avium = experiment: 45 hr MIC against M. avium (NTM); type: cell-based, Mycobacterium avium; conditions: M. avium Chester ATCC 700898
M. scrofulaceum = experiment: 45 hr MIC against M. scrofulaceum (NTM); type: cell-based, Mycobacterium scrofulaceum; conditions: M. scrofulaceum Prissick and Masson ATCC 19981
M. intracellulare = experiment: 45 hr MIC against M. intracellulare (NTM); type: cell-based, Mycobacterium intracellulare; conditions: M. intracellulare (Cuttino and McCabe) Runyon ATCC 13950
[5] = system: P. aeruginosa strain CFS-1292; experiment: MIC in presence and absence of NaCl (140 mM); type: cell-based, Pseudomonas aeruginosa; conditions: for Fold change in MIC: CAA + 140 mM NaCl versus CAA without added NaCl; for MIC, CAA + 140 mM NaCl / MIC, CAA (no added NaCl): P. aeruginosa CFS-1292
Description: Certain Chp peptides were evaluated over a range of physiological NaCl levels and pH values, and were further evaluated for activity in the presence of various divalent cations.

[6] = system: P. aeruginosa strain CFS-1292; experiment: MIC at pH 6, pH 7 and pH 8; type: cell-based, Pseudomonas aeruginosa
Description: The Chp peptides were further evaluated at varying pH levels. The MIC values were determined at pH 6, pH 7, and pH 8 for 18 different Chp peptides against P. aeruginosa strain CFS-1292. […]

[7] = system: P. aeruginosa strain CFS-1292; experiment: MIC in presence of divalent cations (calcium chloride, magnesium sulfate); type: cell-based, Pseudomonas aeruginosa
Description: Next, Chp peptides were evaluated in the presence of different divalent cations. […]; (2) in the presence of 2 mM calcium chloride alone; (3) in the presence of 1 mM magnesium sulfate alone; and (4) in the presence of both 2 mM calcium chloride and 1 mM magnesium sulfate. […]

[8] = system: P. aeruginosa strain CFS-1292; experiment: MIC in presence and absence of Survanta pulmonary surfactant; type: cell-based, Pseudomonas aeruginosa
[9] = system: P. aeruginosa strain CFS-1292; experiment: MIC in presence of mouse, rat, rabbit and human serum ([…] each); type: cell-based, Pseudomonas aeruginosa; conditions: P. aeruginosa CFS-1292
Description: The activity of several Chp peptides against P. aeruginosa strain CFS-1292 in animal serum was evaluated. […] Rat, mouse, and rabbit serum were all obtained from pooled gender samples.

[10] = system: M. kansasii Hauduroy ATCC 12478; experiment: 45 hr MIC against M. kansasii (NTM), Mueller Hinton broth; type: cell-based, Mycobacterium kansasii
[11] = system: Mycobacterium tuberculosis strains
Description: MIC values for various Chp peptides were determined using the CLSI method for broth microdilution in 96-well microtiter format.
Next, MIC values for various Chp peptides were determined using the CLSI method above for broth microdilution in 96-well microtiter format for two different Mycobacterium tuberculosis strains. The MIC was determined as explained above for the NTM strains.

[12] = S. maltophilia isolates (n per peptide in table)
[13] = carbapenem-resistant isolate PA19
[14] = carbapenem-resistant isolate PA20
[15] = carbapenem-resistant isolate PA21
[16] = carbapenem-resistant isolate PA22
[17] = carbapenem-resistant isolate PA23
[18] = carbapenem-resistant isolate PA24
[19] = carbapenem-resistant isolate WLC-452
[20] = CAA media + 0.19 mg/mL Survanta
[21] = Mycobacterium tuberculosis (Zopf) Lehmann and Neumann ATCC 25177
[22] = Mycobacterium tuberculosis (Zopf) Lehmann and Neumann ATCC 35817

MARSRRRMSKRSSRRSFRKYAKTHKKNFKARSMRGGIRL [Ecp3]
0.5: MIC (100% CAA) [4]
2 µg/mL: MIC50 (Pseudomonas aeruginosa) | MIC100 (Escherichia coli) | MIC100 (Klebsiella pneumoniae) | MIC (Acinetobacter baumannii) | MIC [3, 17] | MIC [3, 18] | 45 hr MIC (M. fortuitum) | 45 hr MIC (M. scrofulaceum) | MIC, CAA + 140 mM NaCl [5] | MIC ([6]; pH 6) | MIC ([6]; pH 7) | MIC ([6]; pH 8) | MIC ([7]; CAA media + 1 mM MgSO4) | MIC ([7]; CAA media + 2 mM CaCl2) | MIC ([7]; CAA media + + 1 mM MgSO4) | 45 hr MIC [10]
0.125 to 8 µg/mL: MIC Range (Escherichia coli)
16 µg/mL: MIC [11, 21]
0.25 to 4 µg/mL: MIC Range (Enterobacter cloacae)
>8 µg/mL: MIC100 (S. maltophilia; [12])
good activity: activity (good = MIC100 of ≤4) against all of P. aeruginosa, K. pneumoniae, A. baumannii, E. cloacae, and E. coli [2]
8 µg/mL: 45 hr MIC (M. smegmatis; M. smegmatis MC^2 155, Run #2) | 45 hr MIC (M. intracellulare) | MIC New Zealand White Rabbit Serum [9] | MIC Sprague Dawley Rat Serum [9] | MIC [11, 22]
>32 µg/mL: MIC BALB/C Mouse Serum [9]
1 µg/mL: MIC50 (Escherichia coli) | MIC (Escherichia coli) | MIC50 (Klebsiella pneumoniae) | MIC [3, 19] | 45 hr MIC (M. avium) | MIC ([6]; CAA media (pH 7)) | MIC ([7]; CAA media alone)
0.5 to 4 µg/mL: MIC Range (Pseudomonas aeruginosa) | MIC Range (Klebsiella pneumoniae)
0.125 to 0.5 µg/mL: MIC Range (Acinetobacter baumannii)
0.25 µg/mL: MIC50 (Acinetobacter baumannii)
4: Fold change in MIC [5]
4 µg/mL: MIC100 (Pseudomonas aeruginosa) | MIC100 (Enterobacter cloacae) | MIC (Enterobacter cloacae) | MIC50 (S. maltophilia; [12]) | MIC [3, 14] | MIC [3, 15] | MIC [3, 16] | 45 hr MIC (M. smegmatis; M. smegmatis MC^2 155, Run #1)
0.5 µg/mL: MIC (μg/mL) against CFS-1292 in 100% CAA (1st run/2nd run) [1] | MIC (μg/mL) against CFS-1292 in CAA + […] human serum [1] | MIC50 (Enterobacter cloacae) | MIC (Klebsiella pneumoniae) | MIC100 (Acinetobacter baumannii) | MIC [3, 13] | MIC, CAA (no added NaCl) [5] | MIC [8, 20] | MIC ([8]; CAA media + […] Survanta) | MIC ([8]; CAA media alone) | MIC CAA [9] | MIC Human Serum [9]

MRRRRLSRRTSRRFFRKGLKVRRRNLRARPMRGGFRI [Unp2]
0.125 to 1 µg/mL: MIC Range (Escherichia coli)
0.25 to 1 µg/mL: MIC Range (Klebsiella pneumoniae) | MIC Range (Acinetobacter baumannii)
0.25 µg/mL: MIC50 (Enterobacter cloacae) | MIC50 (Escherichia coli) | MIC (Escherichia coli) | MIC ([7]; CAA media + 1 mM MgSO4) | MIC ([7]; CAA media + 2 mM CaCl2) | MIC ([7]; CAA media alone)
2 µg/mL: MIC [3, 15] | 45 hr MIC (M. smegmatis; M. smegmatis MC^2 155, Run #1) | 45 hr MIC (M. fortuitum) | MIC, CAA + 140 mM NaCl [5] | 45 hr MIC [10]
active: activity against S. maltophilia (S. maltophilia; Table 45 isolates)
>32 µg/mL: MIC BALB/C Mouse Serum [9]
0.5 µg/mL: MIC (μg/mL) against CFS-1292 in 100% CAA (1st run/2nd run) [1] | MIC (μg/mL) against CFS-1292 in CAA + […] human serum [1] | MIC100 (Enterobacter cloacae) | MIC50 (Klebsiella pneumoniae) | MIC50 (Acinetobacter baumannii) | MIC100 (Acinetobacter baumannii) | MIC50 (S. maltophilia; [12]) | MIC [3, 13] | MIC [3, 19] | 45 hr MIC (M. avium) | MIC, CAA (no added NaCl) [5] | MIC ([6]; CAA media (pH 7)) | MIC ([6]; pH 6) | MIC ([6]; pH 7) | MIC ([6]; pH 8) | MIC ([7]; CAA media + + 1 mM MgSO4) | MIC [8, 20] | MIC ([8]; CAA media + […] Survanta) | MIC ([8]; CAA media alone) | MIC CAA [9] | MIC Human Serum [9]
good activity: activity (good = MIC100 of ≤4) against all of P. aeruginosa, K. pneumoniae, A. baumannii, E. cloacae, and E. coli [2]
0.25: MIC (100% CAA) [4]
0.125 µg/mL: MIC (Klebsiella pneumoniae)
8 µg/mL: MIC Sprague Dawley Rat Serum [9]
0.25 to 2 µg/mL: MIC Range (Enterobacter cloacae) | MIC Range (S. maltophilia; [12])
1 µg/mL: MIC50 (Pseudomonas aeruginosa) | MIC100 (Pseudomonas aeruginosa) | MIC100 (Escherichia coli) | MIC100 (Klebsiella pneumoniae) | MIC (Acinetobacter baumannii) | MIC100 (S. maltophilia; [12]) | MIC [3, 14] | MIC [3, 16] | MIC [3, 17] | MIC [3, 18] | 45 hr MIC (M. intracellulare)
16 µg/mL: MIC (Enterobacter cloacae) | MIC [11, 21]
0.5 to 2 µg/mL: MIC Range (Pseudomonas aeruginosa)
4 µg/mL: 45 hr MIC (M. smegmatis; M. smegmatis MC^2 155, Run #2) | 45 hr MIC (M. scrofulaceum) | MIC New Zealand White Rabbit Serum [9] | MIC [11, 22]
4: Fold change in MIC [5]
